The values below come from patent publication US8034819B2, “Glucokinase activator” (Kyorin Pharmaceutical Co., Ltd., priority 2007, dated 2011).

Each structure is given as a SMILES string.

The assay concerns ICR mice. Description: Hypoglycemic activity test. Format: in vivo. Conditions: compared with compound 1 of the invention. The procedure:
Using ICR mice (male, 7 to 9 weeks, Charles River Laboratories Japan Inc.) the effects of each of the tested compounds on blood glucose levels were measured. Each compound was dissolved in a mixture of 60/40 of Gelucire 44/14 (trade name, manufactured by Gatefosse) and PEG 400, and the resulting mixture was orally administered (30 mg/kg, 10 mL/kg) to the mice, which had not been fed for two hours. Blood was collected by a blood collection tube coated with dipotassium ethylenediamine tetraacetate from the tail vein before administration (pre-value) and at points 0.5, 2, and 4 hours after administration. The collected blood was separated by centrifugation (4° C., 3,600×g, 3 minutes), to obtain blood plasma samples.
Each sample was diluted 5-fold with physiological saline, and the blood glucose level was measured using glucose CII-test Wako (trade name, manufactured by Wako Pure Chemical Industries Ltd.). 10 μL each of one of the samples, physiological saline, and 100 mg/dL of glucose standard solution (200 mg/dL of glucose standard solution diluted two-fold with physiological saline) were placed in each well of a 96 well flat bottom plate. Then, 150 μL per well of a developing solution was added, and the color was developed by standing for 5 minutes at 37° C. Measurement was carried out at OD 505 nm using an En Vision 2103 Multilabel Reader (trade name, manufactured by PerkinElmer). The decrease in Σ glucose from the decrease in glucose of each collected point with respect to the pre-value (average of the decrease in glucose of each collected point with respect to the pre-value) was calculated.
On to `O=C(Nc1nccs1)C(CC1CC(F)C(F)C1)c1ccc(S(=O)(=O)C2CC2)cc1` (single isomer, unassigned; (+)) [(+)-2-[4-(cyclopropylsulfonyl)phenyl]-3-[(1β,3α,4α)-3,4-difluorocyclopentyl]-N-(thiazol-2-yl)propionamide], for which the “hypoglycemic activity (in words)” value was “do not exhibit high hypoglycemic activity”.
`O=C(Nc1nccs1)C(C[C@H]1C[C@@H](F)[C@@H](F)C1)c1ccc(S(=O)(=O)C2CC2)cc1` (single isomer, unassigned; (+)) [Reference Example 3, (+)-2-[4-(Cyclopropylsulfonyl)phenyl]-3-[(1α,3α,4α)-3,4-difluorocyclopentyl]-N-(thiazol-2-yl)propionamide]: the “hypoglycemic activity (in words)” value was “do not exhibit high hypoglycemic activity”.
As for `O=C(Nc1nccs1)C(CC1CC(F)C(F)C1)c1ccc(S(=O)(=O)C2CC2)cc1` (single isomer, unassigned; (-)) [(−)-2-[4-(Cyclopropylsulfonyl)phenyl]-3-[(1β,3α,4α)-3,4-difluorocyclopentyl]-N-(thiazol-2-yl)propionamide], the “hypoglycemic activity (in words)” value is reported as “do not exhibit high hypoglycemic activity”.
